Active and inactive are the calls of the source.
Columns and labels:
[1] = molecular target: T1, Eukaryotic translation initiation factor 2-alpha kinase 3 (Homo sapiens, UniProt Q9NZJ5); test: Dose response cell-based high-throughput screening assay to measure PERK inhibition. [Related pubchem assays: 1416 ]; type: functional
[2] = molecular target: T1, Eukaryotic translation initiation factor 2-alpha kinase 3; test: Counterscreen assay for PERK inhibitors: Dose response cell-based high throughput screening assay to measure inhibition of PERK at 6 hours. [Related pubchem assays: 1522, 1416 ]; type: functional
[3] = HIV-1 Env-mediated cell fusion inhibitors, dose response, CCR5-tropic Env (AID 2279); type: functional
[4] = A cytotoxicity screen of small molecule inhibitors of the PhoP region in Salmonella typhi identified in the primary screen. [Related pubchem assays: 1850, 1864, 1985 ]; type: functional
[5] = molecular target: T2, Small ubiquitin-related modifier 1 (Homo sapiens, UniProt P63165); test: inhibitors of SUMO1 partner interactions, dose response, biochemical, FRET (AID 624383); type: functional; details: read-out: IC50_Mean
T2 sequence (P63165 whole entry): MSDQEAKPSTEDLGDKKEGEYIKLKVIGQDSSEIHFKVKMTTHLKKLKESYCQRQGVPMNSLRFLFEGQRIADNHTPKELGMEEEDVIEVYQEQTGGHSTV

[6] = molecular target: 72 kDa type IV collagenase (Homo sapiens, UniProt P08253); test: Dose Response validation of uHTS RPN11 inhibitor hits using a MMP-2 Fluorescence assay.; type: functional
[7] = molecular target: T2, Small ubiquitin-related modifier 1; test: inhibitors of SUMO1 peptide binding, dose response, biochemical, fluorescence polarization, uHTS hits (AID 624382); type: functional; details: read-out: IC50_Mean
[8] = molecular target: 26S proteasome non-ATPase regulatory subunit 14 (Homo sapiens, UniProt O00487); test: inhibition of proteasome subunit RPN11 – biochemical, fluorescence polarization, uHTS hits, confirmation (AID 602368); type: functional
Chain of 26S proteasome non-ATPase regulatory subunit 14 (O00487 whole entry): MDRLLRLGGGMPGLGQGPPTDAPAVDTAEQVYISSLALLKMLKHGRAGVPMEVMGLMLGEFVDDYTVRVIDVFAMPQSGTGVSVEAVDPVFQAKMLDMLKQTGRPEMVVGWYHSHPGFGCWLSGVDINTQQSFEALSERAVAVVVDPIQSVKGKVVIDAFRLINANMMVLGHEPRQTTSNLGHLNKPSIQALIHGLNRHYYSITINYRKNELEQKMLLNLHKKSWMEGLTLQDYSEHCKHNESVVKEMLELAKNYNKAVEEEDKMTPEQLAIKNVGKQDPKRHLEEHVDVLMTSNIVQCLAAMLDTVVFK

Prothrombin = Prothrombin (Bos taurus, UniProt P00735); test: thrombin inhibition, dose response, biochemical, fluorescence polarization, uHTS hits (AID 602369); type: functional
Genome polyprotein = Genome polyprotein (Hepatitis C virus, UniProt Q2Q167); test: HCV core protein dimerization inhibitors, dose response, biochemical, TR-FRET (AID 2159); design: species or system Hepacivirus hominis;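 further: blocks dimerization of HCV core protein measured by TR-FRET between tagged core106 pairs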
[9] = molecular target: Serine/threonine-protein phosphatase PP1-alpha catalytic subunit (Homo sapiens, UniProt P62136); test: PP1 phosphatase inhibitors, dose response, biochemical, fluorescence (AID 2403);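 further: phosphatase turnover of OMFP into fluorescent 3-O-methylfluorescein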
[10] = molecular target: Serine/threonine-protein phosphatase (Homo sapiens, UniProt Q9BPW0); test: Counterscreen for inhibitors of PP1: fluorescence-based biochemical high throughput dose response assay to identify inhibitors of Protein Phosphatase 5 (PP5). [Related pubchem assays: 2034 (Summary (PP5 inhibitors)), 1987 (PP5 inhibitors in singlate), 2235 (PP1 inhibitors in singlate)]
Chain of Serine/threonine-protein phosphatase (Q9BPW0 whole entry): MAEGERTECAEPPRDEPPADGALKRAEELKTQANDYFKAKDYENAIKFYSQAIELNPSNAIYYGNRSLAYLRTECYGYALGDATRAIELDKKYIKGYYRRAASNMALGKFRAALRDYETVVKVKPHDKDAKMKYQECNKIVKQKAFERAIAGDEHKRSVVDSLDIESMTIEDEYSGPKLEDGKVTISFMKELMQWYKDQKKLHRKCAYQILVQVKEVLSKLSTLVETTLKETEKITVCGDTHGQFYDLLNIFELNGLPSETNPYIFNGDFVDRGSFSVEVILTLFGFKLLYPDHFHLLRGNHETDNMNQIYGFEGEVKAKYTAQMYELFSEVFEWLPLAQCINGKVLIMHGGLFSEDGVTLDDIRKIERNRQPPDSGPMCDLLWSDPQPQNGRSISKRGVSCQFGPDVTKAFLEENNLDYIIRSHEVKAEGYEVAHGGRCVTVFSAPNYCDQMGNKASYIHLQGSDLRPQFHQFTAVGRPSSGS

[11] = test system: Streptococcus sp. 'group A'; test: growth inhibition of control SK(-) GAS strain, dose response, counter-screen for streptokinase expression inhibitor project, luminescence, kanamycin, BacTiterGlo, confirmation (AID 1900); type: functional, organism-based
Fatty acid synthase [12] = molecular target: T3, Fatty acid synthase (Homo sapiens, UniProt P49327); test: FAS thioesterase domain inhibitors, dose response, biochemical, endpoint fluorescence intensity, uHTS hits (AID 624327); type: functional;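 further: fluorescence from hydrolysis of an O-methyl fluorescein acyl ester substrate by the enzyme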
T3 sequence (P49327 whole entry, the tested form may be a part): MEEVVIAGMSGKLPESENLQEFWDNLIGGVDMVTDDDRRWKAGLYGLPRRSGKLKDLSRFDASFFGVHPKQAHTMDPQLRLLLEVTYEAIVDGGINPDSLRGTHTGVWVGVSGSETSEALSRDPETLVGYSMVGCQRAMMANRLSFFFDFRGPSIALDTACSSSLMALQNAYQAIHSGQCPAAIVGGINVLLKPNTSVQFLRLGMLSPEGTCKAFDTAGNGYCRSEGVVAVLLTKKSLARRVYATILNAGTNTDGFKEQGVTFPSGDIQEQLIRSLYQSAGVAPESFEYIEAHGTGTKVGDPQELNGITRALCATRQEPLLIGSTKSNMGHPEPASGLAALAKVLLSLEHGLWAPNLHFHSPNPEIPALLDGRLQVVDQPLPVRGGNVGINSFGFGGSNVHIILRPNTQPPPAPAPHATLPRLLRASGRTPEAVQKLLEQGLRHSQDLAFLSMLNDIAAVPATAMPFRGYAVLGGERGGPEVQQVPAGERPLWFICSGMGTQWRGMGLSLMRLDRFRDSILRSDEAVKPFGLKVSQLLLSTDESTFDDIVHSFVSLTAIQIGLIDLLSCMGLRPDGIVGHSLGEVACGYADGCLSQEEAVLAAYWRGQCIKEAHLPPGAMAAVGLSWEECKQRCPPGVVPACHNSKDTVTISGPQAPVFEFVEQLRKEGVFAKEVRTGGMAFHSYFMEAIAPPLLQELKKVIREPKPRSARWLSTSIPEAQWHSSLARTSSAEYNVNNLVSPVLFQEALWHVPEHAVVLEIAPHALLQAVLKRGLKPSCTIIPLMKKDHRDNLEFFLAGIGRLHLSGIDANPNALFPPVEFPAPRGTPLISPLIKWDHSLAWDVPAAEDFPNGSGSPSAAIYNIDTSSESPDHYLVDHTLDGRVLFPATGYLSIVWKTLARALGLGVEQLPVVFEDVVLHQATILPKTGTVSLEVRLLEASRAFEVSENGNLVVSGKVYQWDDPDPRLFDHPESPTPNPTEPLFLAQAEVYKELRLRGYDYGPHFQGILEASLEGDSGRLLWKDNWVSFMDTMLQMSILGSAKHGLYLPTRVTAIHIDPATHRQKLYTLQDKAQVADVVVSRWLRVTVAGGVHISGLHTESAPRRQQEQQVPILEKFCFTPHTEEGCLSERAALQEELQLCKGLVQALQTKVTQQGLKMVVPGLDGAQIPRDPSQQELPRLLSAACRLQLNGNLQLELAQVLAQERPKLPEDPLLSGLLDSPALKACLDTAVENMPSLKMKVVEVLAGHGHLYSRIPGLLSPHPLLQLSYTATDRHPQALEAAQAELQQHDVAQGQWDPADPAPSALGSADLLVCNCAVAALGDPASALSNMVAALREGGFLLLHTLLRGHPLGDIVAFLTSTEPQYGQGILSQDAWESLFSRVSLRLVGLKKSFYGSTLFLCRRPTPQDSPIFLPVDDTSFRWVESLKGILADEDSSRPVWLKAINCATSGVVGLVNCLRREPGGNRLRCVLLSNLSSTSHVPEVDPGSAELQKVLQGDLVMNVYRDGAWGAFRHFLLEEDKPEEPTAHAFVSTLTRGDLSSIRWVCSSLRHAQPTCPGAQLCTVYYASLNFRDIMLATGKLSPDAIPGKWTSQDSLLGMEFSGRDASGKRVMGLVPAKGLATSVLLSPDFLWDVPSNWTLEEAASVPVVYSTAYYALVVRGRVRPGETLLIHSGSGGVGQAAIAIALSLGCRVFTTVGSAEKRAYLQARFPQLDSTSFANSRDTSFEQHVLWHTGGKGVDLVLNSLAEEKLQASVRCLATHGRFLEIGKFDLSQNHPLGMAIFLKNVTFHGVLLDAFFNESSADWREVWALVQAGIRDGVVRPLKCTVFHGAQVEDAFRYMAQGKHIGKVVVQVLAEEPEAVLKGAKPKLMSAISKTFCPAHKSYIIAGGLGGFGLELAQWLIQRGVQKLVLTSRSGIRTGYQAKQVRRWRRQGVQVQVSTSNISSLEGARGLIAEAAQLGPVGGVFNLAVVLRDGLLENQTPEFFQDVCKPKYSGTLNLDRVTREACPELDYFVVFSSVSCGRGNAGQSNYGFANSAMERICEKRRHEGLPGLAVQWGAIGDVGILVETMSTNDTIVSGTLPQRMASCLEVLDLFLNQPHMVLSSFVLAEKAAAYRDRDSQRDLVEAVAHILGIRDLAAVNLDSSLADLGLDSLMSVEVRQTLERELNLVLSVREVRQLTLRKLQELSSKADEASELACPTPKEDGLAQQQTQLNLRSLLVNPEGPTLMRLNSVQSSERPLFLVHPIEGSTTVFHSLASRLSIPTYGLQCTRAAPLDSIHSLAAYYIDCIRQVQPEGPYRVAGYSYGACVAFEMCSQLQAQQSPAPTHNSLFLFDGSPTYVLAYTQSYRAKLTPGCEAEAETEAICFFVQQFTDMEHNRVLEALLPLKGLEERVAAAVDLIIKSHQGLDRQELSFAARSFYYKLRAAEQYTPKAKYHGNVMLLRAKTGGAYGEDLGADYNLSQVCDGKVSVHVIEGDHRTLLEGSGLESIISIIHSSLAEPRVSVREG

[13] = molecular target: T4, Neuropeptide Y receptor type 1 (Homo sapiens, UniProt P25929); test: Fluorescence-based counterscreen for agonists of NPY-Y2: cell-based high-throughput dose response assay for agonists of NPY-Y1.; type: functional
T4 sequence (P25929 whole entry): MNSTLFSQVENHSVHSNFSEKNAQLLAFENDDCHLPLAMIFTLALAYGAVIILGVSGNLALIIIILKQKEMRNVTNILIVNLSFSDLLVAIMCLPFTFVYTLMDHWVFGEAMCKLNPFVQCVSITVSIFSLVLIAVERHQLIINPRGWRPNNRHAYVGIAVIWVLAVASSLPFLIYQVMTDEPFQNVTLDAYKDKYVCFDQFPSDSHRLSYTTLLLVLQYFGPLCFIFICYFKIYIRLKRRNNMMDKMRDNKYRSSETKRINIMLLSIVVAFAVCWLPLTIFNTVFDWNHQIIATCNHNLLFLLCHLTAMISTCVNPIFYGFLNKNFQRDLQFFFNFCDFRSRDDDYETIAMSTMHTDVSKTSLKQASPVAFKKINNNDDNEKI

[14] = molecular target: T5, Neuropeptide Y receptor type 2 (Homo sapiens, UniProt P49146); test: Fluorescence-based cell-based high-throughput dose response assay for agonists of NPY-Y2. [Related pubchem assays: 1703 (Screening assay (CNGC inhibitors).), 1359 (Screening assay (NPY-Y2 potentiators or agonists).), 1304 (Screening assay (NPY-Y1 potentiators or agonists).), 1710 (Screening assay (NPY-Y2 agonists).), 1791 (Summary AID.)]; type: functional
T5 sequence (P49146 whole entry): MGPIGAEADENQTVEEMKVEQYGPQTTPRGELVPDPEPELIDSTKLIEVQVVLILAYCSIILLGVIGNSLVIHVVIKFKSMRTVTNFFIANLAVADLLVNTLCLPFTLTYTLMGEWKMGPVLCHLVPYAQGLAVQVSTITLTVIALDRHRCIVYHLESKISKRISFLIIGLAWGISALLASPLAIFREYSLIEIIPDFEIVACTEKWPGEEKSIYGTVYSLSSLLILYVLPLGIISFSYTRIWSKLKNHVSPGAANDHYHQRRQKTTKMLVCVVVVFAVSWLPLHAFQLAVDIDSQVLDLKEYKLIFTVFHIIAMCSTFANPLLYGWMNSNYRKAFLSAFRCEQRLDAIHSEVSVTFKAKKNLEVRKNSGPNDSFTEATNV

HEK293 = test: Fluorescence-based counterscreen for potentiators or agonists of NPY-Y2: cell-based high-throughput dose response assay to identify inhibitors of cyclic nucleotide gated ion channel (CNGC) activity. In this assay, the parental HEK293 cell line transfected with a cyclic-nucleotide gated ion channel (CNGC)-based cAMP sensor is used to measure inhibition of isoproterenol-induced CNGC activity by test compound.; type: functional; details: Homo sapiens;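 further: stimulus is 1 µM isoproterenol at EC100 plus PDE inhibitor Ro 20-1724 at 25 µM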
Streptococcus = test: Group A Streptococcus viability loss, dose response, counter-screen for streptokinase expression inhibitor project, luminescence, BacTiterGlo (AID 1915); type: functional, organism-based;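 further: potency for reduction of bacterial viability or growth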
Paired box protein Pax-8 = Paired box protein Pax-8 (Homo sapiens, UniProt Q06710); test: inhibitors of PAX8-driven TPO luciferase reporter, dose response, RMG-I cells, cherry-pick (AID 687027); type: functional, cell-based;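 further: luciferase reporter driven by Pax8 target thyroperoxidase promoter measured by SteadyGlo luminescence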
Chain of Paired box protein Pax-8 (Q06710 whole entry): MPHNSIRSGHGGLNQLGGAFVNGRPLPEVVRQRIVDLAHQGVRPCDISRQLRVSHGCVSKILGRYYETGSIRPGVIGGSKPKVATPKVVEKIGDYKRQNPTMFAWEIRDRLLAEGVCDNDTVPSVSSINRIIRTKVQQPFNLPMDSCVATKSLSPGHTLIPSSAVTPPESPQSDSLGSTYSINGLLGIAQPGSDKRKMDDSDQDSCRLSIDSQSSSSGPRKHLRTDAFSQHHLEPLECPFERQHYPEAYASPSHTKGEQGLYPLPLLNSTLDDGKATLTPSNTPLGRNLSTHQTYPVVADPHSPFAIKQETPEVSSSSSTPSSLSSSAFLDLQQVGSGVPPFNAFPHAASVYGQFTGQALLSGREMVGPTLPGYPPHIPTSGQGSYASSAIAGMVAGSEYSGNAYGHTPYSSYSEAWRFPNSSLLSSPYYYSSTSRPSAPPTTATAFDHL

Streptokinase A = molecular target: T6, Streptokinase A (Streptococcus pyogenes serotype M1, UniProt P10520); test: S. pyogenes streptokinase expression inhibitors, potency, dose response, plasminogen activation absorbance, OD405 (AID 1914); type: functional, Streptococcus pyogenes M1 GAS;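 further: secreted streptokinase activity via plasminogen activation per viability signal from cell pellet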
T6 sequence (P10520 whole entry): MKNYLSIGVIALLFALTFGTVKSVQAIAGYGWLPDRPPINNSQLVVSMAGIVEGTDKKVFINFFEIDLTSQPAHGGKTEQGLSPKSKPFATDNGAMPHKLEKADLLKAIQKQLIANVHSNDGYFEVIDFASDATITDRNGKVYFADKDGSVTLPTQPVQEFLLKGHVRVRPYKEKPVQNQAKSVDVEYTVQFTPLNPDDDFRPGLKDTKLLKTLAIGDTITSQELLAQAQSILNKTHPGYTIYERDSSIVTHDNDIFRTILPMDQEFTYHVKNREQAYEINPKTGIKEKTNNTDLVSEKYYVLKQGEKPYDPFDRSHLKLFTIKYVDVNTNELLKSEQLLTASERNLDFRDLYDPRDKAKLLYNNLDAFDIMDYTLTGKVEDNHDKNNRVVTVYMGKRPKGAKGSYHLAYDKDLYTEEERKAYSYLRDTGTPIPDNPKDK

Fatty acid synthase [15] = molecular target: T3, Fatty acid synthase; test: FAS thioesterase domain inhibitors, dose response, biochemical, kinetic fluorescence intensity (AID 624326); type: functional;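 further: rate of fluorescence rise from hydrolysis of a fluorogenic O-methyl fluorescein ester substrate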

T1 sequence (Q9NZJ5 whole entry): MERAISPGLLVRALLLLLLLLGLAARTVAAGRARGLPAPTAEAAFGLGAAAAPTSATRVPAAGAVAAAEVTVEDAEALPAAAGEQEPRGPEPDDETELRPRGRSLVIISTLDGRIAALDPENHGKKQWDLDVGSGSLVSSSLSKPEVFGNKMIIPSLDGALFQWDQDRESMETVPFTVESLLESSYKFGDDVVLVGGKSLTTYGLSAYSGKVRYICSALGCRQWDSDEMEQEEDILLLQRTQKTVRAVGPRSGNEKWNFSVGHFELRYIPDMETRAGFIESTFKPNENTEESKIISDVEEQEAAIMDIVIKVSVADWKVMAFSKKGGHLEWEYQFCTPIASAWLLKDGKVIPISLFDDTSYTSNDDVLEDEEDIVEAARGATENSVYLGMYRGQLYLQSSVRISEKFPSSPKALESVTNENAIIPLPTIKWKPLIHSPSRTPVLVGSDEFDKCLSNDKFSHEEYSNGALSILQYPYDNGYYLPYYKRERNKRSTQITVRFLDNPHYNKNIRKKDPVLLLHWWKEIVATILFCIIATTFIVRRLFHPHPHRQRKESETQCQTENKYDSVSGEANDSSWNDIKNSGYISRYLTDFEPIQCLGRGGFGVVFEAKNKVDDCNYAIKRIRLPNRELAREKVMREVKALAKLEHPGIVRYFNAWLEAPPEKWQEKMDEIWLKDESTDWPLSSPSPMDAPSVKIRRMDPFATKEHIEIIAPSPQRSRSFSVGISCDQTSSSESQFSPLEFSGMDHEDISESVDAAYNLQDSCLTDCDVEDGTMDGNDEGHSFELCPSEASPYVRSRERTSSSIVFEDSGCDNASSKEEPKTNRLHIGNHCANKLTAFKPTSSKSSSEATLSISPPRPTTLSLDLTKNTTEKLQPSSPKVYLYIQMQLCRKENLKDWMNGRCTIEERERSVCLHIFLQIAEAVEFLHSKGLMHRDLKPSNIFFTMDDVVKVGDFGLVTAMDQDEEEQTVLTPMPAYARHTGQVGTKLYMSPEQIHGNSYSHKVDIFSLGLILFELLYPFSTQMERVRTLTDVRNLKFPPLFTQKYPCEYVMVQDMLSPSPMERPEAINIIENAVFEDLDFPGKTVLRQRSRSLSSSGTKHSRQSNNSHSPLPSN

With `Cc1cccc(/C=N/n2c(S)nnc2-c2ccco2)c1` the EC50 [1] was > 55.7 µM (not active) and the EC50 [2] was > 55.7 µM (not active).

With `COc1ccc(C(=O)/C=C/c2cccc(OCc3ccccc3)c2)cc1CSCC(=O)O` the IC50 [3] was 18.7 µM (active).

For `COc1cc(C)c(Cl)cc1S(=O)(=O)n1cnc(C)c1`, the EC50 [4] was > 50 µM (active).

In the case of `CCOc1ccc(NC(=O)c2ccc(NC(=O)COC(=O)c3ccc(NC(=O)CC#N)cc3)cc2)cc1`, the IC50 [5] was 2.11 µM (active), the IC50 [6] was > 100 µM (inactive) and the IC50 [7] was > 66.6 µM (inactive). The IC50 [8] was 15.9 µM (active), the IC50 (Prothrombin) was 55.4 µM (active) and the IC50 (Genome polyprotein) was > 49.8 µM (not active). For the same molecule, the IC50 [9] was 6.8 µM (active) and the IC50 [10] was > 67 µM (not active).

With `C=CCN1C(=O)/C(=C/c2ccc(OC(C)=O)c(OCC)c2[N+](=O)[O-])SC1=S` the EC50 [11] was 1.32 µM (active), the IC50 (Fatty acid synthase [12]) was 5.92 µM (active) and the EC50 [13] was 14.8 µM (not active). For the same molecule, the EC50 [14] was 18.4 µM (not active), the EC50 (HEK293) was > 11.8 µM (not active) and the EC50 (Streptococcus) was 2.63 µM (active). For the same molecule, the AC50 (Paired box protein Pax-8) was 5.91 µM (active), the EC50 (Streptokinase A) was > 150 µM (not active) and the IC50 (Fatty acid synthase [15]) was 2.87 µM (active).

Source: ChEMBL document CHEMBL1201862, “PubChem BioAssay data set” (2004)
